Results reported in patent US11236129B2, “IL-17A binding peptides and medical uses thereof” (Dompe' Farmaceutici S.P.A., priority 2018, dated 2022).
Residues, ends and D or L forms follow the SMILES beside them.

Target: IL-17RA/IL17RC dimerization induced by IL-17A (Homo sapiens, UniProt Q16552)
Assay: IL-17RA/IL17RC dimerization assay in response to IL-17A (PathHunter Cytokine Receptor Assay)
Assay type: cell-based
Conditions: IL-17A at EC80; read-out: IC50 in IL-17RA/IL7RC dimerization assay
Protocol: The peptides of Table 7 were tested for their ability to inhibit the binding of IL-17A to its receptor and the subsequent interaction of IL-17RA and IL17RC.
Interleukin receptor RA and RC dimerization assay (DiscoverX) was used to measure the interaction of the receptor chains IL-17RA and IL17RC upon activation by IL-17A in the absence or presence of the peptides of Table 7.
In the PathHunter® Cytokine Receptor Assay, one cytokine receptor chain is tagged with a small peptide epitope ProLink (PK) and the other chain is tagged with Enzyme Acceptor (EA). Ligand binding induces dimerization of the two receptors, facilitating complementation of PK and EA fragments. This interaction generates an active unit of b-galactosidase, which is detected using a chemiluminescent substrate. PathHunter cell lines were expanded from freezer stocks according to standard procedures. Cells were seeded in a total volume of 20 μL into white walled, 384-well microplates and incubated for the appropriate time prior to testing. For agonist activity inhibition, cells were incubated with sample to induce response. Intermediate dilution of sample stocks was performed to generate 5× sample in assay buffer. 5 μL of 5× sample was added to cells and incubated at 37° C. or room temperature for 60 minutes. Vehicle concentration was 1%. 5 μL of 6×EC80 agonist (IL-17A) in assay buffer was added to the cells and incubated at 37° C. for 6 to 16 hours depending on the assay. 1. […] For some assays, activity was detected using a high sensitivity detection reagent (PathHunter Flash Kit) to improve assay performance. In these assays, an equal volume of detection reagent (25 or 30 uL) was added to the wells, followed by a one hour incubation at room temperature. Microplates were read following signal generation with a PerkinElmer Envision™ instrument for chemiluminescent signal detection. Compound activity was analyzed using CBIS data analysis suite (ChemInnovation, CA). % Inhibition=100%×(1−(mean RLU of test sample−mean RLU of vehicle control)/(mean RLU of EC80 control−mean RLU of vehicle control)).

Sequence of IL-17RA/IL17RC dimerization induced by IL-17A (Q16552 24-155): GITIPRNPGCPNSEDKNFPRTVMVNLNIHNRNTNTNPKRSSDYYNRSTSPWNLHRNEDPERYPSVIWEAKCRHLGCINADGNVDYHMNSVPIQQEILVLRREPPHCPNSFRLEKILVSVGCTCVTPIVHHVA

In the case of `CC(=O)N[C@H](C(=O)N[C@@H](Cc1c[nH]cn1)C(=O)N[C@@H](Cc1ccccc1)C(=O)N[C@@H](CCC(N)=O)C(=O)N[C@@H](Cc1ccccc1)C(=O)N1CCC[C@H]1C(=O)N[C@@H](C)C(=O)N[C@@H](CC(=O)O)C(=O)N[C@@H](CC(C)C)C(=O)N[C@@H](Cc1c[nH]c2ccccc12)C(=O)N[C@@H](CCC(=O)O)C(=O)N[C@@H](Cc1c[nH]c2ccccc12)C(=O)N[C@@H](Cc1ccccc1)C(=O)N[C@@H](CCCNC(=N)N)C(=O)N[C@@H](CCCNC(=N)N)C(N)=O)C(C)C` [SEQ ID NO: 135] (Ac-VHFQFPADLWEWFRR-NH2), the IC50 is reported as less than 500 nM.

Molecule `CC(=O)N[C@H](C(=O)N[C@@H](Cc1c[nH]cn1)C(=O)N[C@@H](Cc1ccccc1)C(=O)N[C@@H](CCC(N)=O)C(=O)N[C@@H](Cc1ccccc1)C(=O)N1CCC[C@H]1C(=O)N[C@@H](CCC(N)=O)C(=O)N[C@@H](CC(=O)O)C(=O)N[C@@H](Cc1c[nH]c2ccccc12)C(=O)N[C@@H](Cc1c[nH]c2ccccc12)C(=O)N[C@@H](CCC(=O)O)C(=O)N[C@@H](Cc1c[nH]c2ccccc12)C(=O)N[C@H](C(=O)N[C@@H](CCCNC(=N)N)C(=O)N[C@@H](CCCNC(=N)N)C(N)=O)C(C)C)C(C)C` [SEQ ID NO: 136] (Ac-VHFQFPQDWWEWVRR-NH2) has an IC50 of less than 500 nM.

In the case of `CC[C@H](C)[C@H](NC(=O)[C@H](CCC(N)=O)NC(=O)[C@H](Cc1ccccc1)NC(=O)[C@H](Cc1c[nH]cn1)NC(=O)[C@@H](NC(C)=O)C(C)C)C(=O)N1CCC[C@H]1C(=O)N[C@@H](CCC(N)=O)C(=O)N[C@@H](CC(=O)O)C(=O)N[C@@H](Cc1c[nH]c2ccccc12)C(=O)N[C@@H](Cc1c[nH]c2ccccc12)C(=O)N[C@@H](CCC(=O)O)C(=O)N[C@@H](Cc1c[nH]c2ccccc12)C(=O)N[C@H](C(=O)N[C@@H](CCCNC(=N)N)C(=O)N[C@@H](CCCNC(=N)N)C(N)=O)C(C)C` [SEQ ID NO: 137] (Ac-VHFQIPQDWWEWVRR-NH2), the IC50 is reported as less than 500 nM.

For `CC(=O)N[C@H](C(=O)N[C@@H](Cc1c[nH]cn1)C(=O)N[C@@H](Cc1ccccc1)C(=O)N[C@@H](CCC(N)=O)C(=O)N[C@@H](Cc1ccccc1)C(=O)N1CCC[C@H]1C(=O)N[C@@H](CCC(N)=O)C(=O)N[C@@H](CC(=O)O)C(=O)N[C@@H](Cc1c[nH]c2ccccc12)C(=O)N[C@@H](Cc1ccc(O)cc1)C(=O)N[C@@H](CCC(=O)O)C(=O)N[C@@H](Cc1c[nH]c2ccccc12)C(=O)N[C@H](C(=O)N[C@@H](CCCNC(=N)N)C(=O)N[C@@H](CCCNC(=N)N)C(N)=O)C(C)C)C(C)C` [SEQ ID NO: 138] (Ac-VHFQFPQDWYEWVRR-NH2), the IC50 was less than 500 nM.

With `CC(=O)N[C@H](C(=O)N[C@@H](Cc1c[nH]cn1)C(=O)N[C@@H](Cc1ccccc1)C(=O)N[C@@H](CCC(N)=O)C(=O)N[C@@H](Cc1ccccc1)C(=O)N1CCC[C@H]1C(=O)N[C@@H](CCC(N)=O)C(=O)N[C@@H](CC(=O)O)C(=O)N[C@@H](Cc1c[nH]c2ccccc12)C(=O)N[C@@H](Cc1c[nH]c2ccccc12)C(=O)N[C@@H](CC(N)=O)C(=O)N[C@@H](Cc1c[nH]c2ccccc12)C(=O)N[C@H](C(=O)N[C@@H](CCCNC(=N)N)C(=O)N[C@@H](CCCNC(=N)N)C(N)=O)C(C)C)C(C)C` [SEQ ID NO: 139] (Ac-VHFQFPQDWWNWVRR-NH2) the IC50 was less than 500 nM.

With `CC(=O)N[C@H](C(=O)N[C@@H](Cc1c[nH]cn1)C(=O)N[C@@H](Cc1ccccc1)C(=O)N[C@@H](CCC(N)=O)C(=O)N[C@@H](Cc1ccccc1)C(=O)N1CCC[C@H]1C(=O)N[C@@H](CCC(N)=O)C(=O)N[C@@H](CC(=O)O)C(=O)N[C@@H](CC(C)C)C(=O)N[C@@H](Cc1c[nH]c2ccccc12)C(=O)N[C@@H](CCC(=O)O)C(=O)N[C@@H](Cc1ccccc1)C(=O)N[C@H](C(=O)N[C@@H](CCCNC(=N)N)C(=O)N[C@@H](CCCNC(=N)N)C(N)=O)C(C)C)C(C)C` [SEQ ID NO: 140] (Ac-VHFQFPQDLWEFVRR-NH2) the IC50 was less than 500 nM.

`CC(=O)N[C@H](C(=O)N[C@@H](Cc1c[nH]cn1)C(=O)N[C@@H](Cc1ccccc1)C(=O)N[C@@H](CCC(N)=O)C(=O)N[C@@H](Cc1ccccc1)C(=O)N1CCC[C@H]1C(=O)N[C@@H](CCC(N)=O)C(=O)N[C@@H](CC(=O)O)C(=O)N[C@@H](Cc1c[nH]c2ccccc12)C(=O)N[C@@H](Cc1c[nH]c2ccccc12)C(=O)N[C@@H](CCC(=O)O)C(=O)N[C@@H](Cc1c[nH]c2ccccc12)C(=O)N[C@@H](Cc1ccccc1)C(=O)N[C@@H](CCCNC(=N)N)C(=O)N[C@@H](CCCNC(=N)N)C(N)=O)C(C)C` [SEQ ID NO: 141] (Ac-VHFQFPQDWWEWFRR-NH2) gave an IC50 of less than 500 nM.

In the case of `CC[C@H](C)[C@H](NC(=O)[C@@H](NC(=O)[C@H](Cc1ccccc1)NC(=O)[C@H](Cc1c[nH]cn1)NC(=O)[C@@H](NC(C)=O)C(C)C)[C@@H](C)O)C(=O)N1CCC[C@H]1C(=O)N[C@@H](C)C(=O)N[C@@H](CC(=O)O)C(=O)N[C@@H](Cc1ccccc1)C(=O)N[C@@H](Cc1c[nH]c2ccccc12)C(=O)N[C@@H](CCC(=O)O)C(=O)N[C@@H](Cc1c[nH]c2ccccc12)C(=O)N[C@@H](Cc1ccccc1)C(=O)N[C@@H](CCCNC(=N)N)C(=O)N[C@@H](CCCNC(=N)N)C(N)=O` [SEQ ID NO: 142] (Ac-VHFTIPADFWEWFRR-NH2), the IC50 is reported as less than 500 nM.

For `CC[C@H](C)[C@H](NC(=O)[C@H](CCC(N)=O)NC(=O)[C@@H](NC(=O)[C@H](Cc1c[nH]cn1)NC(=O)[C@@H](NC(C)=O)C(C)C)C(C)C)C(=O)N1CCC[C@H]1C(=O)N[C@@H](C)C(=O)N[C@@H](CC(=O)O)C(=O)N[C@@H](Cc1ccccc1)C(=O)N[C@@H](Cc1c[nH]c2ccccc12)C(=O)N[C@@H](CCC(=O)O)C(=O)N[C@@H](Cc1c[nH]c2ccccc12)C(=O)N[C@@H](Cc1ccccc1)C(=O)N[C@@H](CCCNC(=N)N)C(=O)N[C@@H](CCCNC(=N)N)C(N)=O` [SEQ ID NO: 143] (Ac-VHVQIPADFWEWFRR-NH2), the IC50 was less than 500 nM.

For `CC(=O)N[C@H](C(=O)N[C@@H](Cc1c[nH]cn1)C(=O)N[C@H](C(=O)N[C@H](C(=O)N[C@@H](Cc1ccccc1)C(=O)N1CCC[C@H]1C(=O)N[C@@H](C)C(=O)N[C@@H](CC(=O)O)C(=O)N[C@@H](CC(C)C)C(=O)N[C@@H](Cc1c[nH]c2ccccc12)C(=O)N[C@@H](CCC(=O)O)C(=O)N[C@@H](Cc1c[nH]c2ccccc12)C(=O)N[C@@H](Cc1ccccc1)C(=O)N[C@@H](CCCNC(=N)N)C(=O)N[C@@H](CCCNC(=N)N)C(N)=O)[C@@H](C)O)C(C)C)C(C)C` [SEQ ID NO: 144] (Ac-VHVTFPADLWEWFRR-NH2), the IC50 was less than 500 nM.

`CC[C@H](C)[C@H](NC(=O)[C@@H](NC(=O)[C@@H](NC(=O)[C@H](Cc1c[nH]cn1)NC(=O)[C@@H](NC(C)=O)C(C)C)C(C)C)[C@@H](C)O)C(=O)N1CCC[C@H]1C(=O)N[C@@H](CCC(N)=O)C(=O)N[C@@H](CC(=O)O)C(=O)N[C@@H](Cc1ccccc1)C(=O)N[C@@H](Cc1c[nH]c2ccccc12)C(=O)N[C@@H](CCC(=O)O)C(=O)N[C@@H](Cc1c[nH]c2ccccc12)C(=O)N[C@@H](Cc1ccccc1)C(=O)N[C@@H](CCCNC(=N)N)C(=O)N[C@@H](CCCNC(=N)N)C(N)=O` [SEQ ID NO: 145] (Ac-VHVTIPQDFWEWFRR-NH2) was tested, and the IC50 was less than 500 nM.

`CC[C@H](C)[C@H](NC(=O)[C@@H](NC(=O)[C@H](Cc1ccccc1)NC(=O)[C@H](Cc1c[nH]cn1)NC(=O)[C@@H](NC(C)=O)C(C)C)[C@@H](C)O)C(=O)N1CCC[C@H]1C(=O)N[C@@H](CCC(N)=O)C(=O)N[C@@H](CC(=O)O)C(=O)N[C@@H](Cc1c[nH]c2ccccc12)C(=O)N[C@@H](Cc1c[nH]c2ccccc12)C(=O)N[C@@H](CCC(=O)O)C(=O)N[C@@H](Cc1c[nH]c2ccccc12)C(=O)N[C@H](C(=O)N[C@@H](CCCNC(=N)N)C(=O)N[C@@H](CCCNC(=N)N)C(N)=O)C(C)C` [SEQ ID NO: 146] (Ac-VHFTIPQDWWEWVRR-NH2) gave an IC50 of less than 500 nM.

`CC(=O)N[C@H](C(=O)N[C@@H](Cc1c[nH]cn1)C(=O)N[C@@H](Cc1ccccc1)C(=O)N[C@H](C(=O)N[C@@H](Cc1ccccc1)C(=O)N1CCC[C@H]1C(=O)N[C@@H](CCC(N)=O)C(=O)N[C@@H](CC(=O)O)C(=O)N[C@@H](CC(C)C)C(=O)N[C@@H](Cc1ccc(O)cc1)C(=O)N[C@@H](CC(N)=O)C(=O)N[C@@H](Cc1c[nH]c2ccccc12)C(=O)N[C@H](C(=O)N[C@@H](CCCNC(=N)N)C(=O)N[C@@H](CCCNC(=N)N)C(N)=O)C(C)C)[C@@H](C)O)C(C)C` [SEQ ID NO: 147] (Ac-VHFTFPQDLYNWVRR-NH2) showed an IC50 of less than 500 nM.

For `CC(=O)N[C@H](C(=O)N[C@@H](Cc1c[nH]cn1)C(=O)N[C@@H](Cc1ccccc1)C(=O)N[C@H](C(=O)N[C@@H](Cc1ccccc1)C(=O)N1CCC[C@H]1C(=O)N[C@@H](CCC(N)=O)C(=O)N[C@@H](CC(=O)O)C(=O)N[C@@H](CC(C)C)C(=O)N[C@@H](Cc1ccc(O)cc1)C(=O)N[C@@H](CC(N)=O)C(=O)N[C@@H](Cc1ccccc1)C(=O)N[C@H](C(=O)N[C@@H](CCCNC(=N)N)C(=O)N[C@@H](CCCNC(=N)N)C(N)=O)C(C)C)[C@@H](C)O)C(C)C` [SEQ ID NO: 148] (Ac-VHFTFPQDLYNFVRR-NH2), the IC50 was less than 500 nM.
